Source: patent US8993619B2, “Cyclic bridgehead ether DGAT1 inhibitors” (Novartis AG, priority 2012, dated 2015)

Columns and labels:
human (His)6DGAT1 = target: T1, human (His)6DGAT1 (Homo sapiens, UniProt O75907); assay: DGAT1 Inhibition Assay; type: biochemical; details: membrane preparation from Sf9 cells overexpressing human (His)6DGAT1; LC/MS/MS readout
T1 construct: made in house; host or cells: Sf9 insect cells (membrane preparation)
T1 sequence (O75907 1-488): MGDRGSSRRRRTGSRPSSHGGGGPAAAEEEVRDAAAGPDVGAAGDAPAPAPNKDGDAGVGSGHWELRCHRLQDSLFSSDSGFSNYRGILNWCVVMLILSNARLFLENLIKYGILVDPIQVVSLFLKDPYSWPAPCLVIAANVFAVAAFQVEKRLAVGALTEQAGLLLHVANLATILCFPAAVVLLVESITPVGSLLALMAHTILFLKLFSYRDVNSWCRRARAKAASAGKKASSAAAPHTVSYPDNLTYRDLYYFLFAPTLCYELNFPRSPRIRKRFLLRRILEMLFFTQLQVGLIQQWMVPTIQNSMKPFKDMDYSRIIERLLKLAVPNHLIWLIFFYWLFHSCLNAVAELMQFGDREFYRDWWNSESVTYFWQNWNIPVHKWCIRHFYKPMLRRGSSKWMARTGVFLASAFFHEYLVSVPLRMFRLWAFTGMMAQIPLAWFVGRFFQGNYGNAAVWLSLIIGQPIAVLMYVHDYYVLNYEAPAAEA
Method: The enzyme preparation used in this assay is a membrane preparation from Sf9 cells overexpressing human (His)6DGAT1. During all steps samples were chilled to 4° C. Sf9 cells expressing human (His)6DGAT1 were thawed at room temperature and re-suspended at a 10:1 ratio (mL buffer/g of cells) in 50 mM HEPES, 1× Complete Protease Inhibitor, pH 7.5. The re-suspended pellet was homogenized for 1 min using a Brinkman PT 10/35 homogenizer with a 20 mm generator. Cells were lysed using Avestin Emulsiflex (chilled to 4° C.) at 10000-15000 psi. Lysate was centrifuged at 100,000×g for 1 h at 4° C. Supernatant was removed and pellets were re-suspended in 50 mM HEPES, 1× Complete Protease Inhibitor, pH 7.5 at ⅙ the volume of supernatant. Re-suspended pellets were pooled and homogenized with 10 strokes of a Glas-Col motor driven teflon pestle on setting 70. The protein concentration of the membrane preparation was quantified using BCA protein assay with 1% SDS. The membrane preparation was aliquoted, frozen on dry ice, and stored at −80° C.
For 50 mL, 25 mL of 0.2 M HEPES stock buffer, 0.5 mL of 1 M MgCl2 ([…]), and 24.5 mL of milli-Q H2O are added to the 55 mL Wheaton Potter-Elvehjem homogenizer. Enzyme preparation (0.1 mL) is added to buffer and the mixture is homogenized with 5 strokes on ice using the Glas-Col variable speed homogenizer system on setting 70.
For 50 mL, 0.5 mL 10 mM diolein is added to 9.5 mL of EtOH in a 50 mL Falcon screw cap conical centrifuge tube. Five mL of 10 mM sodium acetate pH 4.5 is added followed by 0.5 mL of 10 mM oleoyl-CoA. Finally, the remaining 4.5 mL of 10 mM sodium acetate pH 4.5 is added followed by 30 mL of milli-Q H20. The solution should be gently agitated by hand to induce mixing. The final concentrations of EtOH and sodium acetate are 20% and 2 mM, respectively.
Dry compounds are dissolved in the appropriate volume of DMSO to a final concentration of 10 mM. […] All dilutions are performed in DMSO in a Greiner 384-well microplate. • 1. 2 μL of compound in DMSO is added to the appropriate wells. […] 25 μL of enzyme mix is added to all wells and plate(s) are incubated for 10 min at RT. • 3. […] Plate(s) are vortexed using Troemner multi-tube vortexer (setting 7 for 10 sec). • 4. 25 μL of substrate mix is added to all wells. Plate(s) are vortexed using Troemner multi-tube vortexer (setting 7 for 10 sec). Plate(s) are incubated for 30 min at RT. • 5. 10 μL of 20% acetic acid quench is added to all wells. Plate(s) are vortexed using Troemner multi-tube vortexer (setting 7 for 10 sec). • 6. 50 μL of 1-butanol w/ glyceryl tripalmitoleate internal standard is added to all wells. • 7. Plate(s) are sealed with super pierce strong plate sealer using the thermo-sealer. • 8. Plate(s) are vortexed using Troemner multi-tube vortexer (setting 10 for 5 min). • 9. Plate(s) are centrifuged at 162×g (1000 rpm for GH-3.8 rotor) for 5 min using Beckman GS-6R tabletop centrifuge.
Where indicated, tripalmitolein was used as an internal standard to control for instrument variation.
Column: Thermo Betabasic 4, 2.1×20 mm
Solvent: 10 mM Ammonium Formate, 0.1% Formic Acid, 2% water, 98% Methanol
Isocratic run 0.5 ml per minute
Data is converted to % inhibition prior to curve fitting using the following equation: […]

DGAT1 in C2C12 cells = target: T2, DGAT1 in C2C12 cells (Mus musculus, UniProt Q9Z2A7); assay: Cellular assay to measure activity of DGAT1 inhibitors in mammalian cells (C2C12); type: cell-based; details: C2C12 mouse skeletal muscle cells, 250 μM oleate, 2 h, LC/MS readout
T2 construct: endogenous in cells; host or cells: C2C12 mouse skeletal muscle cells
T2 sequence (Q9Z2A7 1-498): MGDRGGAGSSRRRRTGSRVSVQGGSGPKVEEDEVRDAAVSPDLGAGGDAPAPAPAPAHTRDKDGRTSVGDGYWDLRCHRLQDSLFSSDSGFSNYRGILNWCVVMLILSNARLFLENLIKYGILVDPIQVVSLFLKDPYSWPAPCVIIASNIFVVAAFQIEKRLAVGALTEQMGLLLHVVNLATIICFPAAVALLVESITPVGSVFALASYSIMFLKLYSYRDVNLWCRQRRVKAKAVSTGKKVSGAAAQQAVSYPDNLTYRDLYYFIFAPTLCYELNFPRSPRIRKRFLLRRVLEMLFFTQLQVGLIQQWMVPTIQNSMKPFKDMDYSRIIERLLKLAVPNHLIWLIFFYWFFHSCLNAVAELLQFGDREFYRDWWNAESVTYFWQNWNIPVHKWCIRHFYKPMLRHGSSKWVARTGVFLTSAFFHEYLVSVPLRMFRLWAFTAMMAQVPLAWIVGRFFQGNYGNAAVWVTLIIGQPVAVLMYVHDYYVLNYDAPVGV
Method: C2C12 cells are an immortal mouse skeletal muscle cell line showing an 8-fold enrichment form DGAT1 versus DGAT2. C2C12 cells were routinely cultured in 150 cm2 flasks with DMEM (25 mM glucose) containing 10% FBS, 4 m M L-glutamine, 100 U/ml penicillin and 100 μg/ml streptomycin (30 ml per flask), at 37° C., 5% CO2 and 95% humidity. All studies were performed on cells at passage 10 or less.
C2C12 cells were seeded in 96-well plates in DMEM containing […] glucose and 10% FBS, 18 h (at 37° C.) prior to assay (all wells of the plate are used). […] Compounds were added at 1:3 dilution, 11 points and DMSO control, the starting concentration was usually 40 μM. Each point was dosed in quadruplicate allowing 2 compounds to be dosed per plate. The medium was removed at the end of the incubation and 200 μl/well of 1-butanol added. The 1-butanol contained an internal standard, tripalmitolein (2 μM). The plates were sealed with an adhesive plate sealer and left at room temperature for at least 30 min, then spun down at 209×g for 5 min.
Butanolic extracts were transferred to 384-well LC-MS plates (80 μl/well) and the plate heatsealed with a foil plate sealer. The 384-well plates containing sample were spun down at 209×g for 5 min prior to loading on the LC-MS.
Where indicated, tripalmitolein was used as an internal standard to control for instrument variation. HPLC conditions as above.

Row | SMILES | IC50 (human (His)6DGAT1) | IC50 (DGAT1 in C2C12 cells) | IC50 (DGAT1 in C2C12 cells; heading: DGAT1-C2C12 IC50)
1 | CC(C)(C)c1nnc(Nc2ccc(-c3ccc(C45CCC(CC(=O)O)(CC4)OC5)cc3)nc2)o1 [Example 1, 2-(4-(4-(5-(5-tert-butyl-1,3,4-oxadiazol-2-ylamino)pyridin-2-yl)phenyl)-2-oxabicyclo[2.2.2]octan-1-yl)acetic acid] | 345 nM | 288 nM | –
2 | O=C(O)CC12CCC(c3ccc(-c4ccc(Nc5nnc(C6CCC6)s5)cn4)cc3)(CC1)CO2 [Example 3, 2-(4-(4-(5-((5-cyclobutyl-1,3,4-thiadiazol-2-yl)amino)pyridin-2-yl)phenyl)-2-oxabicyclo[2.2.2]octan-1-yl)acetic acid] | 53.5 nM | 15 nM | –
3 | O=C(O)CC12CCC(c3ccc(-c4ccc(Nc5nnc(C6CCC6)s5)nc4)cc3)(CC1)CO2 [Example 5, 2-(4-(4-(6-((5-cyclobutyl-1,3,4-thiadiazol-2-yl)amino)pyridin-3-yl)phenyl)-2-oxabicyclo[2.2.2]octan-1-yl)acetic acid] | 375 nM | 1240 nM | –
4 | O=C(O)CC12CCC(c3ccc(-c4ccc(Nc5nnc(C6CCC6)s5)cc4)cc3)(CC1)CO2 [Example 6, 2-(4-(4′-(5-cyclobutyl-1,3,4-thiadiazol-2-ylamino)biphenyl-4-yl)-2-oxabicyclo[2.2.2]octan-1-yl)acetic acid] | 12.5 nM | 2 nM | –
5 | CC(C)(C)c1nnc(Nc2ccc(-c3ccc(C45CCC(CC(=O)O)(CC4)OC5)cc3)cc2)o1 [Example 8, 2-(4-(4′-(5-tert-butyl-1,3,4-oxadiazol-2-ylamino)biphenyl-4-yl)-2-oxabicyclo[2.2.2]octan-1-yl)acetic acid] | 99 nM | 9 nM | –
6 | Cc1nc(C(=O)Nc2ccc(-c3ccc(C45CCC(CC(=O)O)(CC4)OC5)cc3)cc2)c(C(F)(F)F)o1 [Example 10, 2-(4-(4′-(2-methyl-5-(trifluoromethyl)oxazole-4-carboxamido)-[1,1′-biphenyl]-4-yl)-2-oxabicyclo[2.2.2]octan-1-yl)acetic acid] | 360 nM | 56 nM | –
7 | CC(C)(C)c1cnc(Nc2ccc(-c3ccc(C45CCC(CC(=O)O)(CC4)OC5)cc3)nc2)o1 [Example 14, 2-(4-(4-(5-((5-(tert-butyl)oxazol-2-yl)amino)pyridin-2-yl)phenyl)-2-oxabicyclo[2.2.2]octan-1-yl)acetic acid] | 130 nM | 108 nM | –
8 | CC(C)(C)c1cnc(Nc2ccc(-c3ccc(C45CCC(CC(=O)O)(CC4)OC5)cc3)cc2)o1 [Example 15, 2-(4-(4′-((5-(tert-butyl)oxazol-2-yl)amino)-[1,1′-biphenyl]-4-yl)-2-oxabicyclo[2.2.2]octan-1-yl)acetic acid] | 44 nM | 7 nM | –
9 | CC(C)(C)Cc1nnc(Nc2ccc(-c3ccc(C45CCC(CC(=O)O)(CC4)OC5)cc3)cc2)o1 [Example 17, 2-(4-(4′-((5-neopentyl-1,3,4-oxadiazol-2-yl)amino)-[1,1′-biphenyl]-4-yl)-2-oxabicyclo[2.2.2]octan-1-yl)acetic acid] | 53 nM | 31 nM | –
10 | O=C(O)CC12CCC(c3ccc(-c4ccc(Nc5nnc(C6CCC6)o5)cc4)cc3)(CC1)OC2 [Example 19, {1-[4′-(5-cyclobutyl-[1,3,4]oxadiazol-2-ylamino)-biphenyl-4-yl]-2-oxa-bicyclo[2.2.2]oct-4-yl}-acetic acid] | 260 nM | 6 nM | –

Other lines, results leading:

Row | IC50 (human (His)6DGAT1) | IC50 (DGAT1 in C2C12 cells) | IC50 (DGAT1 in C2C12 cells; heading: DGAT1-C2C12 IC50) | SMILES
11 | 14000 nM | 2500 nM | – | O=C(O)CC12CCC(c3ccc(-c4cnc(Nc5nnc(C6CCC6)s5)nc4)cc3)(CC1)CO2 [Example 4, 2-(4-(4-(2-(5-cyclobutyl-1,3,4-thiadiazol-2-ylamino)pyrimidin-5-yl)phenyl)-2-oxabicyclo[2.2.2]octan-1-yl)acetic acid]
12 | 230000 nM | – | 528 nM | O=C(O)CC12CCC(c3ccc(-c4ccc(Nc5nnc(C6CC6)o5)cc4)cc3)(CC1)CO2 [Example 9, 2-(4-(4′-((5-cyclopropyl-1,3,4-oxadiazol-2-yl)amino)-[1,1′-biphenyl]-4-yl)-2-oxabicyclo[2.2.2]octan-1-yl)acetic acid]
13 | 878 nM | – | – | Cc1nc(C(=O)Nc2ccc(-c3ccc(C45CCC(CC(=O)O)(CC4)OC5)cc3)nc2)c(C(F)(F)F)o1 [Example 12, 2-(4-(4-(5-(2-methyl-5-(trifluoromethyl)oxazole-4-carboxamido)pyridin-2-yl)phenyl)-2-oxabicyclo[2.2.2]octan-1-yl)acetic acid]
14 | 60 nM | 38 nM | – | CC(C)Cc1nnc(Nc2ccc(-c3ccc(C45CCC(CC(=O)O)(CC4)OC5)cc3)cc2)o1 [Example 16, 2-(4-(4′-((5-isobutyl-1,3,4-oxadiazol-2-yl)amino)-[1,1′-biphenyl]-4-yl)-2-oxabicyclo[2.2.2]octan-1-yl)acetic acid]
15 | 2900 nM | 160 nM | – | CCc1nc(C)c(C(=O)Nc2ccc(-c3ccc(C45CCC(CC(=O)O)(CC4)CO5)cc3)cc2)o1 [Example 18, 2-(1-(4′-(2-ethyl-4-methyloxazole-5-carboxamido)-[1,1′-biphenyl]-4-yl)-2-oxabicyclo[2.2.2]octan-4-yl)acetic acid]
